Source: ChEMBL document CHEMBL5113521, “Discovery of a Novel Oral Proteasome Inhibitor to Block NLRP3 Inflammasome Activation with Anti-inflammation Activity” (J Med Chem, 2022)

Experiments:
[1] = Cytotoxicity against HEK293 cells incubated for 24 hrs; assay type: toxicity, cell-based; settings: human
HEK293 = assay: Cytotoxicity against HEK293 cells at less than 20 uM incubated for 24 hrs; assay type: toxicity, cell-based; settings: human, hek293, 24 h
[2] = target: T1, Proteasome Macropain subunit MB1 (Homo sapiens, UniProt P28074); assay: Inhibition of 20S proteasome beta5 subunit (unknown origin) using Suc-LLVY-AMC as flurogenic substrate measured after 1 hr by fluorescence based analysis; settings: read-out: pIC50 (converted)
T1 sequence (P28074 whole entry): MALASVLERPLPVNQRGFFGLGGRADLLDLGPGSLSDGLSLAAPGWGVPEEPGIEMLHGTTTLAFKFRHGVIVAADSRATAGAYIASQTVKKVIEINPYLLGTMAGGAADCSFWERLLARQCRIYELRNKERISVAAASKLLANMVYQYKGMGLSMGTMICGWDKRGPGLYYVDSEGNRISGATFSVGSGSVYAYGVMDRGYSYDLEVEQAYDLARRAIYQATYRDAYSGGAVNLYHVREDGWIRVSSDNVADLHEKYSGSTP

[3] = target: NACHT, LRR and PYD domains-containing protein 3 (Mus musculus) (UniProt Q8R4B8); assay: Inhibition of NLRP3 inflammasome activation in LPS-primed mouse J774.A1 cells assessed as reduction in IL-1beta secretion at 1 uM relative to control; assay type: cell-based
Chain of NACHT, LRR and PYD domains-containing protein 3 (Mus musculus) (Q8R4B8 whole entry, the tested form may be a part): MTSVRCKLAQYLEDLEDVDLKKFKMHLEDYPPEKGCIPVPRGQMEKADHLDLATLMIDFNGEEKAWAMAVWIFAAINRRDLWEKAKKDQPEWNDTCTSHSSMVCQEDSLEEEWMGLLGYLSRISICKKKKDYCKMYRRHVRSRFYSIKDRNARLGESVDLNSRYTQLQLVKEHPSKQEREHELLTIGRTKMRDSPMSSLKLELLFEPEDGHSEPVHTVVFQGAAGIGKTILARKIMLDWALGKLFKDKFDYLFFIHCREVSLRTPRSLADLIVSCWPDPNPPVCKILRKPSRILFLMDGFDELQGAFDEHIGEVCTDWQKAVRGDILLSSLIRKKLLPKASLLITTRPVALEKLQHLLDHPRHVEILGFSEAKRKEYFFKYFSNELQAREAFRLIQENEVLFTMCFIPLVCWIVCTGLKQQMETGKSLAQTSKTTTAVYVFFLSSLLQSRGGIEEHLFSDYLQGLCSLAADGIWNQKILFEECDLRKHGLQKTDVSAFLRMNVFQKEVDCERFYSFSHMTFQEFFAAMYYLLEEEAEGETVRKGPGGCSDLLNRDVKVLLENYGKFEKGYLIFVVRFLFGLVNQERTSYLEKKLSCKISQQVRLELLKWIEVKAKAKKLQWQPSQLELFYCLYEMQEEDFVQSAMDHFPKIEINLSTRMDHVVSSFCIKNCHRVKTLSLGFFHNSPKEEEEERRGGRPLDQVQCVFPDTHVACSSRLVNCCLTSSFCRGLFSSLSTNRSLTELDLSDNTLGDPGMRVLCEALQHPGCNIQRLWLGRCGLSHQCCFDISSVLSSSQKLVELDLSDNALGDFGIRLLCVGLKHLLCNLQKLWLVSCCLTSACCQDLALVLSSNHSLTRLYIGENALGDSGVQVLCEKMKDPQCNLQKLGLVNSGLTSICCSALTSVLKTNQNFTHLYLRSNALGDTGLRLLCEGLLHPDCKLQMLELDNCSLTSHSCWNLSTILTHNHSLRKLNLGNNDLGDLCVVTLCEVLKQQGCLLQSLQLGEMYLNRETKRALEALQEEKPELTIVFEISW

| Compound | IC50 [2] [nM] | inhibition [3] [%] | IC50 at 24 h [1] [nM] | Activity (HEK293) |
| --- | --- | --- | --- | --- |
| CC(C)C[C@H](NC(=O)[C@H](Cc1ccccc1)NC(=O)c1cnccn1)B(O)O [BORTEZOMIB] | – | – | < 79.4 | Non-Toxic |
| CC(C)C[C@H](NC(=O)CN(C)C(=O)c1cc(Cl)ccc1Cl)B(O)O | > 50.1 | – | – | – |
| CC(C)C[C@H](NC(=O)[C@H](Cc1ccccc1)NC(=O)c1ccc(F)cc1F)B(O)O | 4.79 | – | – | – |
| CC[C@@H](C)[C@H](NC(=O)c1cc(Cl)ccc1Cl)C(=O)N[C@@H](CC(C)C)B(O)O | 3.24 | – | – | – |
| CC(C)C[C@H](NC(=O)CNC(=O)c1cc(Cl)ccc1Cl)B(O)O | – | 77 | – | – |
| CC(C)C[C@H](NC(=O)[C@H](Cc1ccc(O)cc1)NC(=O)c1cc(Cl)ccc1Cl)B(O)O | 1 | – | < 79.4 | Non-Toxic |
| CC(C)C[C@H](NC(=O)[C@H](CC(C)C)NC(=O)c1cc(Cl)ccc1Cl)B(O)O | 4.07 | – | – | – |
| CC(C)C[C@H](NC(=O)[C@H](Cc1ccccc1)NC(=O)c1cnc2ccccc2n1)B(O)O | 13.2 | – | – | – |
| CC(C)C[C@H](NC(=O)c1ccc(CNC(=O)c2cc(Cl)ccc2Cl)cc1)B(O)O | > 50.1 | – | – | – |
| CC(C)C[C@H](NC(=O)[C@H](Cc1ccccc1)NC(=O)c1ccccn1)B(O)O | 6.76 | – | < 79.4 | Non-Toxic |
| CC(C)C[C@H](NC(=O)[C@H](CO)NC(=O)c1cc(Cl)ccc1Cl)B(O)O | 5.13 | – | – | – |
| CC(C)C[C@H](NC(=O)[C@@H](NC(=O)c1cc(Cl)ccc1Cl)C(C)C)B(O)O | 0.708 | – | – | – |
| O=C(O)C[C@@H]1CC[C@H](NC(=O)Cc2cccs2)B(O)O1 | – | 7.8 | – | – |
| CC(C)C[C@H](NC(=O)c1cc(Cl)ccc1Cl)B(O)O | > 50.1 | – | – | – |
| Cc1cncc(C(=O)N[C@@H](Cc2ccccc2)C(=O)N[C@@H](CC(C)C)B(O)O)n1 | 32.4 | – | – | – |
| CC(C)C[C@H](NC(=O)[C@H](Cc1ccc2ccccc2c1)NC(=O)c1cc(Cl)ccc1Cl)B(O)O | 12 | – | – | – |
| CC(C)C[C@H](NC(=O)[C@H](Cc1ccccc1)NC(=O)c1cc(Cl)ccc1Cl)C(=O)O | 50.1 | – | – | – |
| CC(C)C[C@H](NC(=O)[C@H](Cc1ccccc1)NC(=O)c1cnccn1)C(=O)O | 50.1 | – | – | – |
| CC(C)C[C@H](NC(=O)[C@H](Cc1ccccc1)NC(=O)c1cccc(F)c1F)B(O)O | 1.12 | – | < 79.4 | Non-Toxic |
| COc1ccc(F)cc1C(=O)N[C@@H](Cc1ccccc1)C(=O)N[C@@H](CC(C)C)B(O)O | 4.47 | – | – | – |

Now from value to compound, other results behind:

| IC50 [2] [nM] | inhibition [3] [%] | Compound | IC50 at 24 h [1] [nM] | Activity (HEK293) |
| --- | --- | --- | --- | --- |
| 6.03 | – | CC(C)C[C@H](NC(=O)[C@H](Cc1ccccc1)NC(=O)c1cc(F)ccc1F)B(O)O | – | – |
| 3.02 | – | CC(C)C[C@H](NC(=O)[C@H](Cc1ccccc1)NC(=O)c1cc(Cl)ccc1F)B(O)O | – | – |
| 19.5 | – | CC(C)C[C@H](NC(=O)[C@H](Cc1ccccc1)NS(=O)(=O)c1cc(Cl)ccc1Cl)B(O)O | – | – |
| 6.31 | – | CC(C)C[C@H](NC(=O)[C@H](Cc1ccccc1)NC(=O)c1cc(Cl)ccc1Cl)B(O)O | – | – |
| 4.27 | – | CC(C)C[C@H](NC(=O)[C@H](Cc1ccccc1)NC(=O)c1nc(Cl)ccc1Cl)B(O)O | < 79.4 | Non-Toxic |
| 3.47 | – | CC(C)C[C@H](NC(=O)[C@H](Cc1ccccc1)NC(=O)c1ccc(Cl)cc1Cl)B(O)O | – | – |
| 7.08 | – | CC(C)C[C@H](NC(=O)[C@@H](NC(=O)c1cc(Cl)ccc1Cl)c1ccccc1)B(O)O | – | – |
| 1.2 | – | CC(C)C[C@H](NC(=O)[C@H](Cc1ccccc1)NC(=O)c1cccc(Cl)c1Cl)B(O)O | < 79.4 | Non-Toxic |
| 8.32 | – | COc1ccc(Cl)cc1C(=O)N[C@@H](Cc1ccccc1)C(=O)N[C@@H](CC(C)C)B(O)O | – | – |
| 3.02 | – | CC(C)C[C@H](NC(=O)[C@H](Cc1ccccc1)NC(=O)c1c(Cl)cccc1Cl)B(O)O | < 79.4 | Non-Toxic |
